Laboratory results as given in PubChem BioAssay (NCI).
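Where inhibition never reached the appropriate level, the endpoint shown equals the highest concentration tested. Otherwise, values were interpolated linearly from a five-concentration, 48-hour dose response in 96-well plates. GI50: concentration for 50% inhibition of growth. TGI marks complete inhibition of growth.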

Experiments:
Experiment in all cases: NCI anticancer screen, dose series, 48 h
[1] = system: HOP-92 NSCLC
[2] = system: CAKI-1 renal
[3] = system: SK-MEL-5 melanoma
[4] = system: HOP-62 NSCLC
[5] = system: NCI-H460 lung
[6] = system: MDA-MB-435
[7] = system: SK-OV-3 ovarian
[8] = system: SR leukemia
[9] = system: NCI-H23 lung
[10] = system: SW-620 colon
[11] = system: RPMI-8226 leukemia
[12] = system: TK-10 renal
[13] = system: UACC-257 melanoma
[14] = system: T-47D breast
[15] = system: SF-539 CNS
[16] = system: CCRF-CEM leukemia
[17] = system: SN12C renal
[18] = system: KM12 colon
[19] = system: EKVX NSCLC
[20] = system: UACC-62 melanoma
[21] = system: IGROV1 ovarian
[22] = system: SK-MEL-28 melanoma
[23] = system: PC-3 prostate
[24] = system: BT-549 breast
[25] = system: SK-MEL-2 melanoma
[26] = system: MALME-3M melanoma
[27] = system: NCI-H522 lung
[28] = system: RXF 393 renal
[29] = system: A549 NSCLC
[30] = system: MOLT-4 leukemia
[31] = system: COLO 205 colon
[32] = system: UO-31 renal
[33] = system: K-562 leukemia
[34] = system: MCF7 breast
[35] = system: HCT-15 colon
[36] = system: MDA-MB-468 breast
[37] = system: HCC-2998 colon
[38] = system: HT29 colon
[39] = system: HCT-116 colon
[40] = system: NCI/ADR-RES ovarian
[41] = system: DU-145 prostate
[42] = system: HS 578T breast
[43] = system: U251 CNS
[44] = system: SF-268 CNS
[45] = system: A498 renal
[46] = system: NCI-H226 lung
[47] = system: OVCAR-5 ovarian
[48] = system: SNB-19 CNS
[49] = system: M14 melanoma
[50] = system: HL-60(TB) leukemia
[51] = system: MDA-MB-231 breast
[52] = system: OVCAR-8 ovarian
[53] = system: OVCAR-3 ovarian
[54] = system: LOX IMVI melanoma
[55] = system: SF-295 CNS

## N/C(=N\c1nc2ccc([N+](=O)[O-])cc2s1)NC(=O)Nc1ccccc1Cl
[1]
  GI50: 2.97 µM
  TGI: 17.5 µM
[2]
  GI50: 3.58 µM
  TGI: > 100 µM
[3]
  GI50: 11.4 µM
  TGI: 38.6 µM
[4]
  GI50: 10.8 µM
  TGI: 94.4 µM
[5]
  GI50: 3.1 µM
  TGI: 8.71 µM
[6]
  GI50: 2.26 µM
  TGI: 7.77 µM
[7]
  GI50: 6.63 µM
  TGI: 28.2 µM
[8]
  GI50: 2.17 µM
  TGI: > 100 µM
[9]
  GI50: 4.55 µM
  TGI: > 100 µM
[10]
  GI50: 5.11 µM
  TGI: > 100 µM
[11]
  GI50: 72.2 µM
  TGI: > 100 µM
[12]
  GI50: 3.6 µM
  TGI: > 100 µM
[13]
  GI50: 45.5 µM
  TGI: > 100 µM
[14]
  GI50: 2.71 µM
  TGI: > 100 µM
[15]
  GI50: 4.55 µM
  TGI: 28.2 µM
[16]
  GI50: 46.9 µM
  TGI: > 100 µM
[17]
  GI50: 4.2 µM
  TGI: > 100 µM
[18]
  GI50: 6.95 µM
  TGI: > 100 µM
[19]
  GI50: 12.4 µM
  TGI: > 100 µM
[20]
  GI50: 14.9 µM
  TGI: 66.6 µM
[21]
  GI50: 9.77 µM
  TGI: > 100 µM
[22]
  GI50: 26.2 µM
  TGI: > 100 µM
[23]
  GI50: 28.9 µM
  TGI: > 100 µM
[24]
  GI50: 4.07 µM
  TGI: > 100 µM
[25]
  GI50: 23 µM
  TGI: 50.2 µM
[26]
  GI50: 4.56 µM
  TGI: > 100 µM
[27]
  GI50: 3.46 µM
  TGI: 41.5 µM
[28]
  GI50: 3.79 µM
  TGI: > 100 µM
[29]
  GI50: 3.09 µM
  TGI: > 100 µM
[30]
  GI50: 40 µM
  TGI: > 100 µM
[31]
  GI50: 6.91 µM
  TGI: 76.2 µM
[32]
  GI50: 3.19 µM
  TGI: > 100 µM
[33]
  GI50: 3.56 µM
  TGI: > 100 µM
[34]
  GI50: 7.69 µM
  TGI: > 100 µM
[35]
  GI50: 6.92 µM
  TGI: > 100 µM
[36]
  GI50: 3.16 µM
  TGI: 13.1 µM
[37]
  GI50: 61.4 µM
  TGI: > 100 µM
[38]
  GI50: 13.9 µM
  TGI: > 100 µM
[39]
  GI50: 1.69 µM
  TGI: 3.46 µM
[40]
  GI50: 3.97 µM
  TGI: > 100 µM
[41]
  GI50: 5.63 µM
  TGI: > 100 µM
[42]
  GI50: 12.1 µM
  TGI: > 100 µM
[43]
  GI50: 2.3 µM
  TGI: 6.18 µM
[44]
  GI50: 15.1 µM
  TGI: > 100 µM
[45]
  GI50: 4.53 µM
  TGI: 38 µM
[46]
  GI50: 5 µM
  TGI: > 100 µM
[47]
  GI50: 4.12 µM
  TGI: > 100 µM
[48]
  GI50: 10.2 µM
  TGI: > 100 µM
[49]
  GI50: 13.1 µM
  TGI: 38.5 µM
[50]
  GI50: 22.4 µM
  TGI: > 100 µM
[51]
  GI50: 2.45 µM
  TGI: 6.88 µM
[52]
  GI50: 3.9 µM
  TGI: > 100 µM
[53]
  GI50: 2.41 µM
  TGI: 6.16 µM
[54]
  GI50: 9.3 µM
  TGI: > 100 µM
[55]
  GI50: 17.6 µM
  TGI: 90.9 µM
